For this experiment, the target named is T1, human CRTH2 (Homo sapiens, UniProt Q9Y5Y4).
T1 construct: expressed in transfected cells; host or cells: CHO-K1
T1 sequence (Q9Y5Y4 1-395): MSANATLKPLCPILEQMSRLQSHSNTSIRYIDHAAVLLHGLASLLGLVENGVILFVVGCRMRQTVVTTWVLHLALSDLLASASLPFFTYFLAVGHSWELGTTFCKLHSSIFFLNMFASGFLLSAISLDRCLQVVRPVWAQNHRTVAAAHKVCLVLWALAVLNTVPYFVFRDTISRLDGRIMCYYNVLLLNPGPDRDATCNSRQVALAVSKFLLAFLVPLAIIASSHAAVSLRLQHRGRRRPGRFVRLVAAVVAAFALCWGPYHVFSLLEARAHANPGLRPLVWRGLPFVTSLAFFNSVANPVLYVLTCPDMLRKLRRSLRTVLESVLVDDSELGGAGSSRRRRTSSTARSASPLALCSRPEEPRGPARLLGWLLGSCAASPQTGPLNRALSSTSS
The experiment is described as follows: Human CRTH2 Receptor Binding Assay (whole cell, [3H]ramatroban competition). The note with it: CHO-K1 cells expressing human CRTH2 and G-alpha16; 20 nM [3H]ramatroban; 1 hour, room temperature. The source says: A whole cell receptor binding assay using [^3H]ramatroban as the competing radioactive ligand was employed to evaluate the compound binding activity to human CRTH2. The radioactive ligand [^3H]ramatroban was synthesized according to Sugimoto et. al. (Eur. J. Pharmacol. 524, 30-37, 2005) to a specific activity of 42 Ci/mmol.
A cell line stably expressing human CRTH2 was established by transfecting CHO-K1 cells with two mammalian expression vectors that harbored human CRTH2 and G-alpha16 cDNAs, respectively, using FuGene® 6 transfection reagent (from Roche). Stable clones expressing CRTH2 were selected by staining each clone with BM16 (BD Pharmingen™ from BD Biosciences, a division of Becton, Dickinson and Company), which is a rat monoclonal antibody to human CRTH2. The cells were maintained as monolayer cultures in Ham's F-12 medium containing 10% fetal bovine serum, 100 units/mL penicillin, 100 μg/mL streptomycin, 2 mM glutamine, 0.5 mg/mL G418 (geneticin) for CRTH2, and 0.2 mg/mL hygromycin-B (for G-alpha 16). For whole cell receptor binding assay, the monolayer cells were rinsed once with PBS (phosphate buffered saline), dissociated using ethylenediaminetetraacetate (Versene™ EDTA from Lonza Inc.), and suspended in PBS containing 10 mM MgCl2 and 0.06% BSA (bovine serum albumin) at 1.5×10^6 cells/mL.
The binding reactions (0.2 mL) were performed in 96-well plates at room temperature in PBS containing 1.5×10^5 cells, 10 mM MgCl2, 0.06% BSA, 20 nM [^3H]ramatroban, and test compound at various concentrations. After 1 hour of binding reactions, the cells were harvested on GF™/B filter microplates (microtiter plates with embedded glass fiber from PerkinElmer, Inc.) and washed 5 times with PBS using a Filtermate™ Harvester (a cell harvester that harvests and washes cells from microplates from PerkinElmer, Inc.). The radioactivities bound to the cells were determined using a microplate scintillation counter (TopCount® NXT, from PerkinElmer, Inc.) after adding 50 μL of Microscint™ 20 scintillation fluid (from PerkinElmer, Inc.) to each well of the filter plates. The radioactivity from non-specific binding was determined by replacing compound with 10 μM of 15(R)-15-methyl PGD2 (from Cayman Chemical Company) in the reaction mixtures. The radioactivity bound to the cells in the absence of compound (total binding) was determined by replacing compound with 0.25% of DMSO (dimethyl sulfoxide) in the reaction mixture. Specific binding data were obtained by subtracting the radioactivity of non-specific binding from each binding data.
The IC50 value is defined as the concentration of the tested compound that is required for 50% inhibition of total specific binding. In order to calculate the IC50 value, the percent inhibition data were determined for 7 concentrations for each compound. The percent inhibition for a compound at each concentration was calculated according to the following formula, [1−(specific binding in the presence of compound)/(total specific binding)]×100. The IC50 value was then obtained by fitting the percent inhibition data to a sigmoidal dose-response (4 parameter logistic) model in the XLfit® software Excel add-in program [from ID Business Solutions Ltd., model 205, where F(x)=(A+(B−A)/(1+((C/x)^D)))].

Regarding `CCS(=O)(=O)c1cnc(Oc2cc(CC(=O)O)cc3ccc(F)cc23)c(Br)c1` [Example 1-13, [4-(3-bromo-5-ethanesulfonyl-pyridin-2-yloxy)-6-fluoro-naphthalen-2-yl]-acetic acid], the IC50 was found to be 2.3 nM. For `Cc1c(CC(=O)O)cc2ccc(F)cc2c1Oc1ncc(S(C)(=O)=O)cc1Br` [Example 2-36, [4-(3-bromo-5-methanesulfonyl-pyridin-2-yloxy)-6-fluoro-3-methyl-naphthalen-2-yl]-acetic acid], the IC50 came to 0.02 nM. As for `CCCCS(=O)(=O)c1ccc(Oc2c(C)c(CC(=O)O)cc3ccc(F)cc23)cc1` [Example 2-23, {4-[4-(butane-1-sulfonyl)-phenoxy]-6-fluoro-3-methyl-naphthalen-2-yl}-acetic acid], the IC50 stood at 2.1 nM. This IC50 lies about 100-fold higher than the previous one. To `CCS(=O)(=O)c1ccc(Oc2c(C)c(CC(=O)O)cc3ccc(F)cc23)nc1` [Example 2-33, [4-(5-ethanesulfonyl-pyridin-2-yloxy)-6-fluoro-3-methyl-naphthalen-2-yl]-acetic acid] belongs 2.7 nM; to `Cc1ccc(S(=O)(=O)c2ccc(Oc3c(C)c(CC(=O)O)cc4ccc(F)cc34)cc2)cc1` [Example 2-29, {6-fluoro-3-methyl-4-[4-(toluene-4-sulfonyl)-phenoxy]-naphthalen-2-yl}-acetic acid], 2.8 nM. For `CCS(=O)(=O)c1cnc(Oc2cc(CC(=O)O)cc3ccc(F)cc23)c(C)c1` [Example 1-12, [4-(5-ethanesulfonyl-3-methyl-pyridin-2-yloxy)-6-fluoro-naphthalen-2-yl]-acetic acid], the IC50 is 2.5 nM. The IC50 values of the last two molecules are within 1.5-fold of each other. Turning to `CS(=O)(=O)c1ccc(Nc2cc(CC(=O)O)cc3ccc(F)cc23)cc1` [Example 8-1, [6-fluoro-4-(4-methanesulfonyl-phenylamino)-naphthalen-2-yl]-acetic acid], the IC50 stood at 3.3 nM.

For the molecule `CCS(=O)(=O)c1ccc(Oc2cc(CC(=O)O)cc3ccc(Br)cc23)nc1` [Example 12-1, [6-Bromo-4-(5-ethanesulfonyl-pyridin-2-yloxy)-naphthalen-2-yl]-acetic acid], the IC50 amounted to 5.3 nM. In turn, `Cc1c(CC(=O)O)cc2ccc(F)cc2c1Oc1ccc(S(C)(=O)=O)c(Cl)c1` [Example 2-11, [4-(3-chloro-4-methanesulfonyl-phenoxy)-6-fluoro-3-methyl-naphthalen-2-yl]-acetic acid] yielded an IC50 of 3 nM. `CS(=O)(=O)c1cnc(Oc2cc(CC(=O)O)cc3ccc(F)cc23)c(Br)c1` [Example 1-14, [4-(3-bromo-5-methanesulfonyl-pyridin-2-yloxy)-6-fluoro-naphthalen-2-yl]-acetic acid] showed an IC50 of 19.1 nM.

Take `CCS(=O)(=O)c1ccc(Oc2c(C)c(CC(=O)O)cc3ccc(F)cc23)c(F)c1` [Example 2-13, [4-(4-ethanesulfonyl-2-fluoro-phenoxy)-6-fluoro-3-methyl-naphthalen-2-yl]-acetic acid]: the IC50 is 2.4 nM. Take `Cc1c(CC(=O)O)cc2ccc(F)cc2c1Oc1ccc(S(=O)(=O)c2ccc(Cl)cc2)cc1` [Example 2-31, {4-[4-(4-chloro-benzenesulfonyl)-phenoxy]-6-fluoro-3-methyl-naphthalen-2-yl}-acetic acid]: the half-maximal inhibitory concentration (IC50) was 3.6 nM. `Cc1c(CC(=O)O)cc2ccc(F)cc2c1Oc1ccc(S(=O)(=O)N2CCC(F)(F)CC2)cc1` [Example 2-42, {4-[4-(4,4-difluoro-piperidine-1-sulfonyl)-phenoxy]-6-fluoro-3-methyl-naphthalen-2-yl}-acetic acid] showed a 50% inhibitory concentration (IC50) of 2.9 nM. The result for `CCS(=O)(=O)c1ccc(Oc2c(C)c(CC(=O)O)cc3ccc(F)cc23)c(C#N)c1` [Example 2-18, [4-(2-cyano-4-ethanesulfonyl-phenoxy)-6-fluoro-3-methyl-naphthalen-2-yl]-acetic acid] reads 1.7 nM. Turning to `CCS(=O)(=O)c1cc(Cl)c(Oc2c(C)c(CC(=O)O)cc3ccc(F)cc23)cc1F` [Example 2-25, [4-(2-chloro-4-ethanesulfonyl-5-fluoro-phenoxy)-6-fluoro-3-methyl-naphthalen-2-yl]-acetic acid], the IC50 was 2.4 nM. In turn, `CS(=O)(=O)c1ccc(Oc2cc(CC(=O)O)cc3ccc(F)cc23)cc1` [Example 1-2, [6-fluoro-4-(4-methanesulfonyl-phenoxy)-naphthalen-2-yl]-acetic acid] had an IC50 of 3.1 nM.

On to `CCS(=O)(=O)c1ccc(Oc2cc(CC(=O)O)cc3ccc(F)cc23)c(C)c1` [Example 1-8, [4-(4-ethanesulfonyl-2-methyl-phenoxy)-6-fluoro-naphthalen-2-yl]-acetic acid], for which the IC50 was determined as 3.3 nM. `CCS(=O)(=O)c1ccc(Oc2cc(CC(=O)O)cc3ccc(C(F)(F)F)cc23)cc1` [Example 1-17, [4-(4-Ethanesulfonyl-phenoxy)-6-trifluoromethyl-naphthalen-2-yl]-acetic acid] came in with an IC50 of 10.5 nM.

Molecule `CS(=O)(=O)c1ccc([S+]([O-])c2cc(CC(=O)O)cc3ccc(F)cc23)cc1` (stereo not shown) [Example 10-1, [6-fluoro-4-(4-methanesulfonyl-benzenesulfinyl)-naphthalen-2-yl]-acetic acid] yielded an IC50 of 10.3 nM. As to `C=Cc1c(CC(=O)O)cc2ccc(F)cc2c1Oc1ccc(S(=O)(=O)CC)cn1` [Example 17-1, [4-(5-Ethanesulfonyl-pyridin-2-yloxy)-6-fluoro-3-vinyl-naphthalen-2-yl]-acetic acid], the IC50 stood at 12.4 nM. For the molecule `Cc1cc(S(C)(=O)=O)ccc1Oc1c(C)c(CC(=O)O)cc2ccc(F)cc12` [Example 2-3, [6-fluoro-4-(4-methanesulfonyl-2-methyl-phenoxy)-3-methyl-naphthalen-2-yl]-acetic acid], the IC50 was 7.5 nM. For `Cc1c(CC(=O)O)cc2ccc(F)cc2c1Oc1ccc(S(C)(=O)=O)c(F)c1` [Example 2-16, [6-fluoro-4-(3-fluoro-4-methanesulfonyl-phenoxy)-3-methyl-naphthalen-2-yl]-acetic acid], the 50% inhibitory concentration (IC50) worked out at 3.4 nM. Molecule `CCS(=O)(=O)c1ccc(Oc2cc(CC(=O)O)cc3ccc(Br)cc23)cc1` [Example 15-1, [6-Bromo-4-(4-ethanesulfonyl-phenoxy)-naphthalen-2-yl]-acetic acid] returned an IC50 of 5.4 nM. Regarding `Cc1c(CC(=O)O)cc2ccc(F)cc2c1Oc1ccc(S(C)(=O)=O)cn1` [Example 2-32, [6-fluoro-4-(5-methanesulfonyl-pyridin-2-yloxy)-3-methyl-naphthalen-2-yl]-acetic acid], the IC50 turned out to be 0.9 nM.

As for `Cc1c(CC(=O)O)cc2ccc(F)cc2c1Oc1ccc(S(=O)(=O)N2CCOCC2)cc1` [Example 2-40, {6-fluoro-3-methyl-4-[4-(morpholine-4-sulfonyl)-phenoxy]-naphthalen-2-yl}-acetic acid], the IC50 came to 6.3 nM.

The molecule `CCS(=O)(=O)c1ccc(Oc2cc(CC(=O)O)cc3ccc(OC(F)(F)F)cc23)cc1` [Example 1-19, [4-(4-Ethanesulfonyl-phenoxy)-6-trifluoromethoxy-naphthalen-2-yl]-acetic acid] displayed an IC50 of 2.6 nM. To `CS(=O)(=O)c1ccc(Oc2cc(CC(=O)O)cc3ccc(F)cc23)nc1` [Example 1-9, [6-fluoro-4-(5-methanesulfonyl-pyridin-2-yloxy)-naphthalen-2-yl]-acetic acid] belongs 3.7 nM. To `CC(C)S(=O)(=O)c1ccc(Oc2cc(CC(=O)O)cc3ccc(F)cc23)cc1` [Example 1-4, {6-fluoro-4-[4-(propane-2-sulfonyl)-phenoxy]-naphthalen-2-yl}-acetic acid] belongs 6.7 nM.
